Experimental data reported in ChEMBL document CHEMBL1156052, “Discovery of 1-[4-(3-chlorophenylamino)-1-methyl-1H-pyrrolo[3,2-c]pyridin-7-yl]-1-morpholin-4-ylmethanone (GSK554418A), a brain penetrant 5-azaindole CB2 agonist for the treatment of chronic pain” (J Med Chem, 2009).
In brackets after ≈: the same amount, converted by molar mass. Activity calls are given as the source filed them. The calls are words filed in the database; no cut-off is given here.

Columns and labels:
Cannabinoid receptor 1 [1] = target: T1, Cannabinoid receptor 1 (Homo sapiens, UniProt P21554); assay: Agonist activity at human recombinant cannabinoid CB1 receptor expressed in MMY23 Saccharomyces cerevisiae assessed as degradation of FDGlu to fluorescein after 24 hrs by spectrofluorimetry; assay type: functional
Cannabinoid receptor 1 [2] = target: T1, Cannabinoid receptor 1; assay: Agonist activity at human recombinant cannabinoid CB1 receptor expressed in MMY23 Saccharomyces cerevisiae assessed as degradation of FDGlu to fluorescein at 30 uM after 24 hrs by spectrofluorimetry; assay type: functional
Cannabinoid receptor 2 [3] = target: T2, Cannabinoid receptor 2 (Homo sapiens, UniProt P34972); assay: Agonist activity at human recombinant cannabinoid CB2 receptor expressed in MMY23 Saccharomyces cerevisiae assessed as degradation of FDGlu to fluorescein after 24 hrs by spectrofluorimetry relative to HU210; assay type: functional
Cannabinoid receptor 2 [4] = target: T2, Cannabinoid receptor 2; assay: Agonist activity at human recombinant cannabinoid CB2 receptor expressed in MMY23 Saccharomyces cerevisiae assessed as degradation of FDGlu to fluorescein after 24 hrs by spectrofluorimetry; assay type: functional
Homo sapiens = species on record: Homo sapiens; assay: Selectivity ratio of EC50 for human recombinant cannabinoid CB1 receptor to EC50 for human recombinant cannabinoid CB2 receptor
[5] = Solubility in simulated intestinal fluid at pH 5; assay type: physicochemical
Cannabinoid receptor 1 [6] = target: T1, Cannabinoid receptor 1; assay: Agonist activity at human recombinant cannabinoid CB1 receptor expressed in MMY23 Saccharomyces cerevisiae assessed as degradation of FDGlu to fluorescein after 24 hrs by spectrofluorimetry relative to HU210; assay type: functional
Rattus norvegicus [7] = assay: Analgesic activity in rat joint model of chronic pain at 1 to 10 mg/kg, po BID for 5 days; assay type: functional, organism-based
[8] = Efflux ratio of apparent permeability […] side of MDR1-expressing MDCK2 cells after 60 mins by liquid scintillation counting; assay type: ADME, cell-based, Canis lupus familiaris; conditions: dog, mdck-ii, 1 h
[9] = Ratio of drug level in brain to blood in mouse; assay type: ADME, tissue-based
[10] = Intrinsic clearance in rat liver microsomes; assay type: ADME, Microsome
Cytochrome P450 2C9 = Cytochrome P450 2C9 (Homo sapiens, UniProt P11712); assay: Inhibition of CYP2C9; assay type: ADME
Cytochrome P450 2D6 = Cytochrome P450 2D6 (Homo sapiens, UniProt P10635); assay: Inhibition of CYP2D6; assay type: ADME
Cytochrome P450 1A2 = Cytochrome P450 1A2 (Homo sapiens, UniProt P05177); assay: Inhibition of CYP1A2; assay type: ADME
Cytochrome P450 2C19 = Cytochrome P450 2C19 (Homo sapiens, UniProt P33261); assay: Inhibition of CYP2C19; assay type: ADME
Rattus norvegicus [11] = assay: Antihyperalgesic activity in po dosed complete Freund's adjuvant rat model of inflammatory pain assessed as reduction of hypersensitivity administered as single dose; assay type: functional
[12] = Intrinsic clearance in human liver microsomes; assay type: ADME, Microsome
[13] = Dissociation constant, pKa of the compound; assay type: physicochemical
Cytochrome P450 3A4 = Cytochrome P450 3A4 (Homo sapiens, UniProt P08684); assay: Inhibition of CYP3A4; assay type: ADME
Cytochrome P450 3A4, sequence (P08684 whole entry): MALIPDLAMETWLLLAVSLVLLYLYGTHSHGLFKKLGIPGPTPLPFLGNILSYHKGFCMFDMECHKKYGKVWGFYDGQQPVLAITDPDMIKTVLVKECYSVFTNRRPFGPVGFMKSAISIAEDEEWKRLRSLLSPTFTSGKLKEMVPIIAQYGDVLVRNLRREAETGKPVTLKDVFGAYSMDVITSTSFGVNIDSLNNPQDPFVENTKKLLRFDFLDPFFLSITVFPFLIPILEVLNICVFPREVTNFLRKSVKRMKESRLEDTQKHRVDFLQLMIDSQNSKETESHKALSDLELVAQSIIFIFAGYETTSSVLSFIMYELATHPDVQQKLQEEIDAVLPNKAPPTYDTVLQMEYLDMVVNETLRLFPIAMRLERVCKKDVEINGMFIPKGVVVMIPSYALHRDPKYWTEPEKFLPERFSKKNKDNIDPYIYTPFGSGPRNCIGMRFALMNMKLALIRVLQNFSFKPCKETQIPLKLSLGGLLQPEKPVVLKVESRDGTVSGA

T2 sequence (P34972 whole entry): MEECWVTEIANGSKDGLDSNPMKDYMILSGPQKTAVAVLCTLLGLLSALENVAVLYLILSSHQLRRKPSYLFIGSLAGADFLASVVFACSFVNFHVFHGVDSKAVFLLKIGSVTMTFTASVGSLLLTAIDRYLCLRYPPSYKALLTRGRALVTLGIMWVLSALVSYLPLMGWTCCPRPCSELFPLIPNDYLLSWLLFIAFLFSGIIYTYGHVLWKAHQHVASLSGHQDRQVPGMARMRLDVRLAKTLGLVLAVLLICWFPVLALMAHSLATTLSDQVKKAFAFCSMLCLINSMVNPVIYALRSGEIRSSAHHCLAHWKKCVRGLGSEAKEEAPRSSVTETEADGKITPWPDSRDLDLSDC
T1 sequence (P21554 whole entry): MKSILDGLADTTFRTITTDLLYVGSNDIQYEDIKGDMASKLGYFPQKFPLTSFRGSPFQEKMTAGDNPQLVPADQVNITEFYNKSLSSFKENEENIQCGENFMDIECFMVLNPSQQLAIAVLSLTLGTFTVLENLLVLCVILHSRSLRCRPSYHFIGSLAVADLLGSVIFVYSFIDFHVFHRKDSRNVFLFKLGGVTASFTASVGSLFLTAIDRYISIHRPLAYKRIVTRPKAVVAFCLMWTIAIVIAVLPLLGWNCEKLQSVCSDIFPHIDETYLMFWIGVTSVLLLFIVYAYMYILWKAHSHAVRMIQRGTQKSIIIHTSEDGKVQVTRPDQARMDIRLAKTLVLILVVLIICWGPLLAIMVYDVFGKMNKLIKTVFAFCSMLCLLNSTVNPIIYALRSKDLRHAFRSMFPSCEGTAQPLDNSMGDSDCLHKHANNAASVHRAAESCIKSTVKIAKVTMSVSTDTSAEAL
Cytochrome P450 2D6, sequence (P10635 whole entry): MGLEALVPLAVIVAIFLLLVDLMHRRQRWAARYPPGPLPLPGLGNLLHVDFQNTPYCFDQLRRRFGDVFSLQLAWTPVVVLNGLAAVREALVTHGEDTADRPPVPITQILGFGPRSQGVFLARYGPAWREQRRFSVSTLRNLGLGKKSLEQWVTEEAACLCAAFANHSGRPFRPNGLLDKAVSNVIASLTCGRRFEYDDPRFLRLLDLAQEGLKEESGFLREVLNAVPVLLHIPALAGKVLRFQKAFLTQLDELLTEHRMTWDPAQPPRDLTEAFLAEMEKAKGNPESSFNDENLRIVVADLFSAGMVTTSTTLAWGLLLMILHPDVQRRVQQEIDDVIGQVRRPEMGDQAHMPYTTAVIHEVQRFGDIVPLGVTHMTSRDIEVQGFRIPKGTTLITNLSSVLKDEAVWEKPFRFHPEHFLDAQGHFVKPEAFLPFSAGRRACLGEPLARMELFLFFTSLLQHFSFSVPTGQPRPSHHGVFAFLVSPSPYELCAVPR
Cytochrome P450 2C9, sequence (P11712 whole entry): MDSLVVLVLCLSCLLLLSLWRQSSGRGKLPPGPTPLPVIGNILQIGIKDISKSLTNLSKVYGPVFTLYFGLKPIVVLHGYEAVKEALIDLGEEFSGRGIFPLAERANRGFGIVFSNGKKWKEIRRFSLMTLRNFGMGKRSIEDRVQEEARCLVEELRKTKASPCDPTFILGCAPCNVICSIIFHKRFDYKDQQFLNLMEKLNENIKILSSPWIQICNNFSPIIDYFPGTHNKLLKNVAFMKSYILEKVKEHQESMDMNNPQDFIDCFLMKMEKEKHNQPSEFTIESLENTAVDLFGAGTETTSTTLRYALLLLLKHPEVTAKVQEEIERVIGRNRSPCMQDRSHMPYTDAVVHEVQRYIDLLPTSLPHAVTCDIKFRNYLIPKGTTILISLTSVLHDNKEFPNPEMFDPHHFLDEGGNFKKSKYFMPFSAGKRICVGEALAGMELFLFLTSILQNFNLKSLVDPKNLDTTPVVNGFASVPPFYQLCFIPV
Cytochrome P450 1A2, sequence (P05177 whole entry): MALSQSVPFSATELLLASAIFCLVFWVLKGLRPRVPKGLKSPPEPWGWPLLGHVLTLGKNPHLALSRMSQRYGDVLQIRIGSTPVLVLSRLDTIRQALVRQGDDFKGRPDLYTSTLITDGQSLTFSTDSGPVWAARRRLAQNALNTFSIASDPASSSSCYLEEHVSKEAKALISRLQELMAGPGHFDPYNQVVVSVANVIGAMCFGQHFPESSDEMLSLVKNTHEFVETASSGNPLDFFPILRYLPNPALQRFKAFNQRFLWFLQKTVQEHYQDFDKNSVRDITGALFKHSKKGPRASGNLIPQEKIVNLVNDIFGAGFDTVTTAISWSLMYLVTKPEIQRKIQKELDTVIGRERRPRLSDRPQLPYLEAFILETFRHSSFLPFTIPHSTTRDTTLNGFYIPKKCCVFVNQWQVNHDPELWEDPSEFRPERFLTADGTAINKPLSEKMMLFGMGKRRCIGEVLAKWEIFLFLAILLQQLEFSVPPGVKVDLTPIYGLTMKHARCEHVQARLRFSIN
Cytochrome P450 2C19, sequence (P33261 whole entry): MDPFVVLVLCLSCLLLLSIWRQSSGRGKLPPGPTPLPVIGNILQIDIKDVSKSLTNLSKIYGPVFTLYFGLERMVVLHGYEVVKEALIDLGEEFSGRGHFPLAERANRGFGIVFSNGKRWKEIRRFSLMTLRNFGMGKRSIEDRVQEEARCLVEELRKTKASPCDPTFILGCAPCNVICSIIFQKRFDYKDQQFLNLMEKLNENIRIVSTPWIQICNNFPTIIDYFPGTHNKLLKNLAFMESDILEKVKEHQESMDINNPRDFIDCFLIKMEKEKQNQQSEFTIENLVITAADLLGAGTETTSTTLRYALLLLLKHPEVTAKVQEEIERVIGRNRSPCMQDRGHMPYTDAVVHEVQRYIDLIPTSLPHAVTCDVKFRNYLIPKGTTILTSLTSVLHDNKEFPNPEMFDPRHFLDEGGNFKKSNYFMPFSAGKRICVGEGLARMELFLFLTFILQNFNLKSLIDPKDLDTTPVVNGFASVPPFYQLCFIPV

Row | Compound | EC50 (Cannabinoid receptor 1 [1]) | Activity (Cannabinoid receptor 1 [2]) | Efficacy (Cannabinoid receptor 2 [3]) | EC50 (Cannabinoid receptor 2 [4]) | Ratio EC50 (Homo sapiens) | further results
1 | Cc1c[nH]c2c(Nc3cccc(C(F)(F)F)c3)ncc(C(=O)N3CCOCC3)c12 | > 30 µM | inactive | 86% | 0.015 µM | > 100 | –
2 | Cc1c[nH]c2c(Nc3cccc(Cl)c3)ncc(C(=O)NCc3ccc(F)cc3)c12 | > 30 µM | – | 58% | 0.145 µM | – | –
3 | O=C(NCC1CCOCC1)c1cnc(Nc2ccc(Cl)cc2Cl)nc1C(F)(F)F [GW842166X] | > 30 µM | – | – | – | – | solubility [5]: 10 µg/mL (≈ 22.3 µM)
4 | Cc1c[nH]c2c(Nc3cccc(Cl)c3)ncc(C(=O)N3CCCC3)c12 | > 30 µM | – | 68% | 0.153 µM | – | –
5 | COc1ccccc1Nc1ncc(C(=O)N2CCOCC2)c2c(C)c[nH]c12 | > 10 µM | inactive | 72% | 0.349 µM | > 100 | –
6 | Cc1c[nH]c2c(Nc3cccc(Cl)c3)ncc(C(=O)N3CCC3)c12 | > 30 µM | – | 66% | 0.504 µM | – | –
7 | Cc1c[nH]c2c(Nc3cccc(Cl)c3)ncc(C(=O)N3CCCCCC3)c12 | > 30 µM | – | 76% | 0.107 µM | – | –
8 | COc1cccc(Nc2ncc(C(=O)N3CCOCC3)c3c(C)c[nH]c23)c1 | 25.1 µM | inactive | 83% | 0.048 µM | – | Efficacy (Cannabinoid receptor 1 [6]): 69%
9 | Cc1c[nH]c2c(Nc3cccc(Cl)c3)ncc(C(=O)NC3CCOCC3)c12 | > 30 µM | – | 79% | 1.7 µM | – | –
10 | Cc1c[nH]c2c(Nc3cccc(Cl)c3)ncc(C(=O)N3CCOCC3)c12 | 10 µM | – | 82% | 0.011 µM | 1000 | Activity (Rattus norvegicus [7]): inactive; Ratio [8]: 74; Efficacy (Cannabinoid receptor 1 [6]): 74%; Kp [9]: < 0.05; CLint scaled [10]: 1.4 mL/min/kg; IC50 (Cytochrome P450 2C9): 4.7 µM; IC50 (Cytochrome P450 2D6): 14 µM; solubility [5]: 160 µg/mL (≈ 431 µM); IC50 (Cytochrome P450 1A2): 28 µM; IC50 (Cytochrome P450 2C19): 29 µM; ED50 (Rattus norvegicus [11]): 0.12 mg/kg; CLint scaled [12]: 1.6 mL/min/kg; pKa [13]: 5.8; IC50 (Cytochrome P450 3A4): 48 µM
